In US9518038B2, “Condensation product of theanine derivative and carboxylic acid coumarin derivative, its intermediate, preparation method and use thereof” (SHANDONG YINGDONG YINGHAO BIOTECHNOLOGY, INC., priority 2012, dated 2016):

How the values were obtained:
[1] = Fluorescent imaging in vivo and in vitro; format: physicochemical; details: 60 mg/kg body weight/0.2 ml
Method: Fluorescent images and wavelength ranges of the compounds as obtained in embodiments 1-7 were determined according to the literature method (Chen Y, et al., 2-(3-{1-Carboxy-5-[(6-[18F]fluoro-pyridine-3-carbonyl)-amino]-pentyl}-ureido)-pentanedioic acid, [18F]DCFPyL, a PSMA-based PET imaging agent for prostate cancer. Clin Cancer Res, 2011, 17(24):7645-53), and the results were shown in Table 3 and FIG. 1.
2. Experimental procedure: For in-vitro fluorescent imaging and detection: the compounds Ia-Ih as obtained in embodiments 1-7 were prepared in 1.5 ml plastic centrifugal tubes into a solution with the concentration of 60 mg/0.2 ml, fluorescent signals and images were respectively detected and recorded with a multifunctional microplate reader and an animal in-vivo imaging instrument under the following excitation and emission wavelength conditions, and the obtained results were shown in Table 3 and FIG. 1 (small test tube photos); and for the detection of fluorescent images in-vivo: after 16 h of fasting treatment of the experimental animals (while drinking water was normally supplied), solutions of the compounds Ia-Ih as obtained in embodiments 1-7 were prepared according to a concentration of 60 mg/kg body weight/0.2 ml, and intraperitoneally administered to the animal, the fluorescent images were detected and recorded with the animal in-vivo imaging instrument under the following excitation and emission wavelength conditions, the obtained results were shown in FIG. 1 (animal in-vivo imaged photos); wherein, the experimental excitation wavelength range was 360 nm-590 nm; and the detection wavelength range was 410 nm-700 nm.

[2] = system: Nuclear β-catenin; assay: Western Blotting, nuclear β-catenin level; format: cell-based; details: human liver cancer cells, Lewis lung cancer cells and other cancer cell lines and tumor tissues, read-out: Effective concentration (IC50) for inhibition of Nuclear β-catenin
Text: (§1) Antibodies: primary antibodies of VEGFR, EGFR, c-Met, K-Ras, H-Ras, Akt, NF-κB, Cyclin D1, ER-alpha, Dvl-1, Dvl-2, Dvl-3, MMP-9, MMP2, β-catenin, Bcl-2, Bax, p53, p21, E-cadherin and Caspase3 protein, purchased from American Cell Signaling Technology Company and Santa Cruz Technology Company; and H3 acetylation, H4 acetylation and HDAC (HDAC3, HDAC4 and the like) Antibody Sample Kits, purchased from Cell Signaling Technology Company of the U.S.
(§2) (3) polyacrylamide gel electrophoresis (SDS-PAGE): an equal amount of protein lysate sample was used to separate protein, film transfer, and blocking, treated with appropriate primary antibodies and secondary antibodies in sequence, and the film was washed, then the color was developed with ECL kit, and a blot protein band was detected by exposure of an X-ray film; and a Gel-Pro Analyzer was used for quantitative analysis of gray degree, optical density value of the control group and the drug treatment group in various concentration were respectively compared with that of internal reference, the obtained ratios were respectively compared with the control group, and the protein expression level was semi-quantified.

[3] = system: human brain tumor cells Daoy; assay: MTT growth inhibition, Daoy cells; format: cell-based; details: Homo sapiens, 72 h after treatment, read-out: Drug concentration (IC50) at which 50% cancer cells survived
Text: (§3) Cell lines and cell culture: human lung cancer cells A549 and H460, human breast cancer cells MCF-7 and MDA-MB-231, human gastric cancer cells BGC-823, human prostate cancer cells PC-3, human chronic leukemia cells K562, human lymphoma cells U937, human liver cancer cells SMMC7721 and HepG2, human colon cancer cells HT29, human pancreatic cancer cells PANC-1 and BxPC3, human cervical cancer Hela cell lines, human brain tumor cells Daoy, human neuroma cells D54 and human oral epidermoid cancer cells KBV200 line with strong drug resistance, mouse melanoma cells B16, and highly metastatic Lewis lung cancer cell lines were purchased from American Type Culture Collection of the U.S. These cells were cultured with DMEM and RPMI-1640 culture solutions separately.
(§4) The procedure was as follows:
(§5) (1) 0.25% trypsin was used to digest cancer cells in a logarithmic growth phase to prepare a single-cell suspension, the concentration of cells was adjusted to 5×10^4/mL, and the adjusted suspension was inoculated into a 96-well culture plate with 100 μl per well;
(§6) (2) The culture plate was transferred into a 37° C. incubator with a saturated humidity and 5% of CO2 and cultured for 24 h; the compounds and the intermediates thereof obtained in embodiments 1-7 and the compound as represented by formula (IIIa) or the positive control anti-cancer drug with the concentration of 1-1000 μM/L were added to enable the final concentration to be 0.1-1500 μM/L. Control wells (only added with 200 μl of cell suspension) and drug-free blank control wells (containing the solvent of 0.01% DMSO) were set, each group included 8 wells, and the plate was placed into the 37° C. incubator with saturated humidity and 5% of CO2 for culturing;
(§7) (3) The 96-well plate was taken out at 48 h and 72 h after dosing, the original culture medium was carefully removed by suction, 100 μl of serum-free DMEM culture medium and 10 μl of MTT (5 mg/mL) solution were added in each well. The plate was continuously cultured for another 4 h and then the culture was terminated;
(§8) (4) The supernatant in the wells was carefully removed by suction, each well was added with 150 μl of DMSO and shaked at room temperature for 10-15 min to fully dissolve crystals.
(§9) (5) Colorimetric analysis: the wavelength was selected as 570 nm, the light absorbance (A value) of each well was determined on the microplate reader and the results were recorded; the experiment was repeated for three times;
(§10) (6) the experimental results were calculated according to the following formula: relative survival rate=(A value of each experimental group/A value of cell control group)×100%
(§11) Calculation of median-effect concentration (IC50, namely the drug concentration at which the inhibition rate is 50%, also known as half inhibitory concentration):
(§12) IC50 of the detected component was calculated by using a regression equation.

[4] = system: K-Ras; assay: Western Blotting, K-Ras level; format: cell-based; details: human liver cancer cells, Lewis lung cancer cells and other cancer cell lines and tumor tissues, read-out: Effective concentration (IC50) for inhibition of K-Ras
Text: as §1, §2

[5] = system: c-Met; assay: Western Blotting, c-Met level; format: cell-based; details: human liver cancer cells, Lewis lung cancer cells and other cancer cell lines and tumor tissues, read-out: Effective concentration (IC50) for inhibition of c-Met
Text: as §1, §2

[6] = system: human breast cancer cells MDA-MB-231; assay: MTT growth inhibition, MDA-MB-231 cells; format: cell-based; details: 72 h after treatment, read-out: Drug concentration (IC50) at which 50% cancer cells survived
Text: as §3, §4, §5, §6, §7, §8, §9, §10, §11, §12

[7] = system: human neuroma cells D54; assay: MTT growth inhibition, D54 cells; format: cell-based; details: Homo sapiens, 72 h after treatment, read-out: Drug concentration (IC50) at which 50% cancer cells survived
Text: as §3, §4, §5, §6, §7, §8, §9, §10, §11, §12

[8] = system: H-Ras; assay: Western Blotting, H-Ras level; format: cell-based; details: human liver cancer cells, Lewis lung cancer cells and other cancer cell lines and tumor tissues, read-out: Effective concentration (IC50) for inhibition of H-Ras
Text: as §1, §2

[9] = system: VEGFR2; assay: Western Blotting, VEGFR2 level; format: cell-based; details: human liver cancer cells, Lewis lung cancer cells and other cancer cell lines and tumor tissues, read-out: Effective concentration (IC50) for inhibition of VEGFR2
Text: as §1, §2

[10] = system: human lymphoma cells U937; assay: MTT growth inhibition, U937 cells; format: cell-based; details: Homo sapiens, U-937, 72 h after treatment, read-out: Drug concentration (IC50) at which 50% cancer cells survived
Method: as §4, §7, §8, §9, §10, §12

SMILES	Emission (fluorescent wavelength range detectable in vivo and in vitro) [1]	Excitation (fluorescent wavelength range detectable in vivo and in vitro) [1]	IC50 [2]	IC50 [3]	IC50 [4]	IC50 [5]	IC50 [6]	IC50 [7]	IC50 [8]	IC50 [9]	IC50 [10]
CCNC(=O)CCC(NC(=O)c1cc2cc(F)ccc2oc1=O)C(=O)OCC (stereo in doubt) [Compound Ie, (R)-2-(6-F-2-oxo-2H-benzopyran-3-carboxamido)-5-ethylamino-5-oxo-pentanoic acid ethyl ester]	430-650 nm	360-610 nm	< 65 µM	210 µM	< 60 µM	< 145 µM	90 µM	150 µM	< 60 µM	< 90 µM	126 µM
CCNC(=O)CCC(NC(=O)c1cc2cc([N+](=O)[O-])ccc2oc1=O)C(=O)OCC (stereo in doubt) [Compound If, (R)-2-(6-nitro-2-oxo-2H-benzopyran-3-carboxamido)-5-ethylamino-5-oxo-pentanoic acid ethyl ester]	430-650 nm	360-610 nm	< 90 µM	129 µM	< 55 µM	< 141 µM	110 µM	105 µM	< 55 µM	< 90 µM	121 µM
CCNC(=O)CC[C@H](N)C(=O)OC [Compound IIa, theanine methyl ester]	–	–	–	400 µM	–	–	480 µM	400 µM	–	–	350 µM
CCNC(=O)CC[C@H](N)C(=O)OCC [Compound IIb, theanine ethyl ester]	–	–	–	400 µM	–	–	400 µM	300 µM	–	–	400 µM
CCNC(=O)CCC(NC(=O)c1cc2ccccc2oc1=O)C(=O)OC (centres unmarked) [Compound Ia, methyl 5-ethylamino-5-oxo-2-(2-oxo-2H-benzopyran-3-carboxamido)pentanoate]	430-650 nm	360-610 nm	< 120 µM	250 µM	< 85 µM	< 160 µM	240 µM	160 µM	< 85 µM	< 125 µM	56 ± 10 µM
CCNC(=O)CCC(NC(=O)c1cc2ccccc2oc1=O)C(=O)OCC (centres unmarked) [Compound Ib, ethyl 5-ethylamino-5-oxo-2-(2-oxo-2H-benzopyran-3-carboxamido)pentanoate]	430-650 nm	360-610 nm	< 120 µM	135 µM	< 75 µM	< 155 µM	109 µM	165 µM	< 75 µM	< 120 µM	90 µM
CCNC(=O)CC[C@@H](NC(=O)c1cc2cc(Cl)ccc2oc1=O)C(=O)OCC [Compound Ic, (R)-2-(6-CI-2-oxo-2H-benzopyran-3-carboxamido)-5-ethylamino-5-oxo-pentanoic acid ethyl ester]	430-670 nm	360-610 nm	< 100 µM	86 µM	< 65 µM	–	87 µM	98 µM	< 65 µM	< 100 µM	52 µM
CCNC(=O)CC[C@@H](NC(=O)c1cc2cc(Br)ccc2oc1=O)C(=O)OCC [Compound Id, (R)-2-(6-Br-2-oxo-2H-benzopyran-3-carboxamido)-5-ethylamino-5-oxo-pentanoic acid ethyl ester]	430-670 nm	36-610 nm	< 100 µM	128 µM	< 60 µM	< 150 µM	91 µM	92 µM	< 60 µM	< 100 µM	124 µM
CCNC(=O)CC[C@@H](NC(=O)c1cc2cc(Cl)cc(Cl)c2oc1=O)C(=O)OCC [Compound Ig, (R)-2-(6,8-dichloro-2-oxo-2H-benzopyran-3-carboxamido)-5-ethylamino-5-oxo-pentanoic ethyl ester]	430-690 nm	360-610 nm	< 100 µM	110 µM	< 65 µM	< 150 µM	92 µM	79 µM	< 65 µM	< 100 µM	38 µM
CCNC(=O)CC[C@@H](NC(=O)c1cc2cc(Br)cc(Br)c2oc1=O)C(=O)OCC [Compound Ih, (R)-2-(6,8-dibromo-2-oxo-2H-benzopyran-3-carboxamido)-5-ethylamino-5-oxo-pentanoic ethyl ester]	430-690 nm	360-610 nm	< 100 µM	121 µM	< 65 µM	< 500 µM	98 µM	87 µM	< 65 µM	< 100 µM	57 µM
